From US5118705A, “Water soluble salts of purpuromycin and pharmaceutical formulations thereof” (Gruppo Lepetit S.p.A., priority 1990, dated 1992)
In brackets after ≈: the same amount, converted by molar mass. Structures can show the parent of a compound that is named as a salt. Where two headings read alike, the source gives them in different places.

How the values were obtained:
[1] = system: Propionibacterium acnes ATCC 6919; test: In vitro activity, M.I.C., microbroth dilution; format: cell-based; details: salts calculated as weight of purpuromycin; 37° C., 48 h, anaerobic hood
Description: (§1) MIC were determined by the microbroth dilution test. Bacteria were grown at 37° C., fungi at 30° C. Incubation was for 20 h, except for Propionibacterium acnes, Bacteroides fragilis, Neisseria gonorrhoeae, Haemophilus influenzae (48 h) and Trichophyton mentagrophytes (72h) Neisseria gonorrhoeae and Haemophilus influenzae were incubated in a CO2 -enriched (5%) atmosphere; Propionibacterium acnes and Bacteroides fragilis in an anaerobic hood. Media used were: Oxoid Iso-sensitest broth (Staphylococci, Enterococcus faecalis and Escherichia coli); Difco Todd-Hewitt broth (streptococci); Difco GC base broth with 1% BBL IsoVitaleX (Neisseria gonorrhoeae); Difco Brain-Heart Infusion broth with 1% Difco supplement C (Haemophilus influenzae); Difco Wilkins-Chalgren broth (Propionibacterium acnes and Bacteroides fragilis); Difco Yeast Nitrogen Base broth with 1.5 g/1 asparagine (Candida albicans); Difco Sabouraud-dextrose broth (Trichophyton mentagrophytes). Inocula were approximately 10^4 CFU/ml.

[2] = system: Trichophyton mentagrophytes SKF 17410; test: In vitro activity, M.I.C., microbroth dilution; format: cell-based; details: salts calculated as weight of purpuromycin; 30° C., 72 h
Description: as §1

[3] = system: Neisseria gonorrhoeae L 997; test: In vitro activity, M.I.C., microbroth dilution; format: cell-based; details: salts calculated as weight of purpuromycin; 37° C., 48 h, 5% CO2
Description: as §1

Strep. pyogenes L49 = test: In vitro activity, M.I.C., microbroth dilution; format: cell-based; details: salts calculated as weight of purpuromycin; 37° C., 20 h
Description: as §1

Staph. aureus Tour L 165 = test: In vitro activity, M.I.C., microbroth dilution; format: cell-based; details: salts calculated as weight of purpuromycin; 37° C., 20 h
Description: as §1

[4] = system: Staph. epidermidis ATCC 12228; test: In vitro activity, M.I.C., microbroth dilution; format: cell-based; details: salts calculated as weight of purpuromycin; 37° C., 20 h
Description: as §1

[5] = system: Haemophilus influenzae ATCC 19418; test: In vitro activity, M.I.C., microbroth dilution; format: cell-based; details: salts calculated as weight of purpuromycin; 37° C., 48 h, 5% CO2
Description: as §1

[6] = system: Enterococcus faecalis ATCC 7080; test: In vitro activity, M.I.C., microbroth dilution; format: cell-based; details: salts calculated as weight of purpuromycin; 37° C., 20 h
Description: as §1

[7] = system: Candida albicans SKF 2270; test: In vitro activity, M.I.C., microbroth dilution; format: cell-based; details: salts calculated as weight of purpuromycin; 30° C., 20 h
Description: as §1

[8] = system: Bacteroides fragilis ATCC 23745; test: In vitro activity, M.I.C., microbroth dilution; format: cell-based; details: salts calculated as weight of purpuromycin; 37° C., 48 h, anaerobic hood
Description: as §1

Staph. haemolyticus L602 = test: In vitro activity, M.I.C., microbroth dilution; format: cell-based; details: salts calculated as weight of purpuromycin; 37° C., 20 h
Description: as §1

[9] = system: Escherichia coli SKF 12140; test: In vitro activity, M.I.C., microbroth dilution; format: cell-based; details: salts calculated as weight of purpuromycin; 37° C., 20 h
Description: as §1

Strep. pneumoniae L44 = test: In vitro activity, M.I.C., microbroth dilution; format: cell-based; details: salts calculated as weight of purpuromycin; 37° C., 20 h
Description: as §1

[10] = system: Trichomonas vaginalis TVL; test: In vitro activity, M.I.C., microtiter trays; format: cell-based; details: salts calculated as weight of purpuromycin; 48 h, anaerobic hood, 37° C.
Description: MIC were performed in flat-bottomed microtiter trays, with 0.2 ml per well. The medium was TYM modified basal medium (Merck) plus 10% horse serum (treated to inactivate complement). The inoculum was ca. 10^5 organisms/ml; incubation was for 48 h in an anaerobic hood (37° C.).The microtiter wells were read using an inverted light microscope. The MIC was taken as the lowest concentration at which no live (mobile) protozoa were seen.

[11] = Solubility and pH of solution; format: physicochemical
Gardnerella vaginalis = test: In vitro activity, M.I.C., agar dilution; format: cell-based; details: salts calculated as weight of purpuromycin; ATCC 14018 and 10 clinical isolates, all same M.I.C.; inoculum ca. 10^5 CFU, 48 h
Description: **The assay was carried out on strain ATCC 14018 and 10 clinical isolates
Incubation was for 48 h in an anaerobic hood (37° C.); inoculum ca. 10^5 CFU.

[12] = system: Candida albicans SKF 2270; test: Activity against Candida strains, two-fold dilution method; format: cell-based; details: Candida albicans, SKF2270, 20 h
Description: (§2) This set of experiments included also one strain each of two other Candida species, Candida tropicalis and Candida kruzei. The M.I.C. were determined by the two-fold dilution method in buffered (0.01 M phosphate buffer, pH 7.4) yeast nitrogen base medium (Difco) supplemented with 1.5 g/liter asparagine in microtiter trays. Inocula were approximately 10^4 colony forming units/ml. Incubation was for 20 h at 30° C. Purpuromycin was dissolved in DMSO and added to the cultures as above.

[13] = system: Candida albicans ATCC 10231; test: as above; format: cell-based; details: Candida albicans, ATCC10231, 20 h
Description: as §2

[14] = system: Trichomonas vaginalis strain TVL; test: Activity against Trichomonas vaginalis, two-fold tube dilution method; format: cell-based
Description: Trichomonas vaginalis (applicant's internal code TVL) was grown on Trichomonas Culture Medium Base (Merck) plus 10% heat treated horse serum. Inoculum: approximately 10^5 organisms/ml. Incubation: 48 hours at 37° C.

[15] = system: Gardnerella vaginalis ATCC 14018 and other 11 clinical isolates; test: Activity against Gardnerella vaginalis, standard two fold dilution methods; details: for Number of strains with MIC of 8 mcg/ml: MIC 8 mcg/ml; for Number of strains with MIC of 32 mcg/ml: MIC 32 mcg/ml
Description: The strains were grown on Casman medium (Difco) plus 5% (v/v) whole rabbit blood and 0.15 (v/v) lysed rabbit blood. Inoculum size: approximately 10^4 colony forming units per spot. Incubation in an anaerobic hood: 48 hours at 37° C.

[16] = comparative tests, antibacterial agents, read-out: M.I.C.
[17] = MIC >128 mcg/ml, 12 strains tested

Question: With COC(=O)c1cc2cc3c(c(O)c2c(=O)o1)OC1(Cc2c(O)c4c(c(O)c2O1)C(=O)C(OC)=CC4=O)CC3O (centres unmarked) [Purpuromycin salt with TRIS (1:1.5), Salt of purpuromycin with tris-(hydroxymethyl) aminomethane] as the molecule, how does the M.I.C. [1] read?
Answer: 0.06 mg/L

Question: What about the M.I.C. [2] of the same molecule?
Answer: 1 mg/L

Question: What about the M.I.C. [3] of the same molecule?
Answer: 0.06 mg/L

Question: And the M.I.C. (Strep. pyogenes L49)?
Answer: 0.06 mg/L

Question: And the M.I.C. (Staph. aureus Tour L 165)?
Answer: 0.06 mg/L

Question: What about the M.I.C. [4] of the same molecule?
Answer: 0.06 mg/L

Question: And the M.I.C. [5]?
Answer: 0.06 mg/L

Question: What about the M.I.C. [6] of the same molecule?
Answer: 0.06 mg/L

Question: And the M.I.C. [7]?
Answer: 1 mg/L

Question: What about the M.I.C. [8] of the same molecule?
Answer: 0.13 mg/L

Question: What about the M.I.C. (Staph. haemolyticus L602) of the same molecule?
Answer: 0.06 mg/L

Question: And the M.I.C. [9]?
Answer: 16 mg/L

Question: What about the M.I.C. (Strep. pneumoniae L44) of the same molecule?
Answer: 0.13 mg/L

Question: And the M.I.C. [10]?
Answer: 4 mg/L

Question: What about the “pH value of the solution” value ([11]; solution at 4.5 mg/ml in distilled water) of the same molecule?
Answer: 8.8

Question: What about the solubility ([11]; water, room temperature, calculated as purpuromycin, read-out: solubility in distilled water) of the same molecule?
Answer: 4500 µg/mL

Question: What about the M.I.C. (Gardnerella vaginalis) of the same molecule?
Answer: 16 mg/L

Question: For CN[C@@H]1[C@H](O)[C@H](NC)[C@H]2O[C@@]3(O)C(=O)C[C@@H](C)O[C@H]3O[C@@H]2[C@H]1O [spectinomycin], which MIC [12, 16] is on record?
Answer: > 128 µg/mL

Question: What about the MIC [13, 16] of the same molecule?
Answer: > 128 µg/mL

Question: Which results are given for O=C(N[C@H](CO)[C@H](O)c1ccc([N+](=O)[O-])cc1)C(Cl)Cl [chloramphenicol]?
Answer: MIC [12]: > 128 µg/mL; MIC [13]: > 128 µg/mL

Question: Which results are given for Clc1ccccc1C(c1ccccc1)(c1ccccc1)n1ccnc1 [Clotrimazole]?
Answer: MIC ([14]; Trichomonas vaginalis, 48 h): 64 µg/mL (≈ 186 µM); Number of strains with MIC of 8 mcg/ml ([15]; 12 strains tested): 2 strains; Number of strains with MIC of 16 mcg/ml ([15]; MIC 16 mcg/ml, 12 strains tested): 1 strains; Number of strains with MIC of 32 mcg/ml ([15]; 12 strains tested): 2 strains; Number of strains with MIC of >128 mcg/ml [15, 17]: 2 strains

Question: Which results are given for C[C@@H]1[C@H](O)[C@@H](C)/C=C/C=C/CC/C=C/C=C/C=C/C=C/C(O[C@H]2O[C@H](C)[C@@H](O)[C@H](N)[C@@H]2O)CC2O[C@](O)(CC(O)C(O)CCC(O)CC(O)CC(O)CC(=O)O[C@H]1C)CC(O)C2C(=O)O (some centres unmarked) [Nystatin]?
Answer: MIC ([14]; 48 hours at 37° C.): > 128 µg/mL; Number of strains with MIC of >128 mcg/ml [15]: 12 strains; MIC on resistant strains ([15]; strains resistant to the named drug): > 128 micrograms/ml

Question: For Clc1ccc(COC(Cn2ccnc2)c2ccc(Cl)cc2Cl)c(Cl)c1 (centres unmarked) [Miconazole], which MIC ([14]; Trichomonas vaginalis, 48 h) is on record?
Answer: 32 µg/mL (≈ 76.9 µM)

Question: What about the MIC ([15]; Gardnerella vaginalis, read-out: MIC on resistant strains) of the same molecule?
Answer: > 128 µg/mL

Question: What about the “Number of strains with MIC of 4 mcg/ml” value ([15]; MIC 4 mcg/ml, 12 strains tested) of the same molecule?
Answer: 1 strains

Question: What about the “Number of strains with MIC of 8 mcg/ml” value ([15]; 12 strains tested) of the same molecule?
Answer: 7 strains

Question: What about the “Number of strains with MIC of 32 mcg/ml” value ([15]; 12 strains tested) of the same molecule?
Answer: 2 strains

Question: And the “Number of strains with MIC of >128 mcg/ml” value [15, 17]?
Answer: 2 strains

Question: For CC1(C)S[C@@H]2[C@H](NC(=O)[C@H](N)c3ccccc3)C(=O)N2[C@H]1C(=O)O [ampicillin], which MIC [12, 16] is on record?
Answer: > 128 µg/mL

Question: And the MIC [13, 16]?
Answer: > 128 µg/mL

Question: For C[C@@H]1[C@H](O)[C@@H](C)/C=C/C=C/C=C/C=C/C=C/C=C/C=C/[C@H](O[C@@H]2O[C@H](C)[C@@H](O)[C@H](N)[C@@H]2O)C[C@@H]2O[C@](O)(C[C@@H](O)C[C@@H](O)[C@H](O)CC[C@@H](O)C[C@@H](O)CC(=O)O[C@H]1C)C[C@H](O)[C@H]2C(=O)O [Amphotericin B], which MIC ([14]; Trichomonas vaginalis, 48 h) is on record?
Answer: 64 µg/mL (≈ 69.3 µM)
